Test results as given in PMC8752738, “A propolis-derived small molecule ameliorates metabolic syndrome in obese mice by targeting the CREB/CRTC2 transcriptional complex” (Nature Communications, 2022).
Values joined by “and” are separate entries in the source; they are usually repeats but may differ in a detail not shown here. Identical values can stand only once.

Tests used:
[1] = Metabolic chamber assay; type: in vivo, mouse; parameters: AUC of RER / AUC of RER, group mean: unit not given beside the values; conditions: for RER of DIO: DIO ip APC, single animals
Procedure: Metabolic parameters of mice were determined using Columbus Instruments Comprehensive Lab Animal Monitoring System (CLAMS). The area unit under the curve (AUC) of respiratory exchange ratio (RER) and ambulatory activity (X-TOT) were calculated using Graphpad prism 8.0.

[2] = biological target: T1, GST-CREB / HA-P300 interaction (Homo sapiens, UniProt P16220); assay: GST-CREB pull-down of HA-P300 from HEK293T lysate; type: biochemical; conditions: APC 10 μM
T1 construct: made in house; host or cells: GST-CREB beads (pGEX5X-1); HA-P300 expressed in HEK293T cells
Procedure: 1 Supplementary Figure 2.
2 a) Immunoblot of HA-P300 recovered from HEK293T cell lysate using GST-CREB beads. APC
3 (10 μM) was incubated with cells for 1-h before FKS (10 nM) stimulation and was included in the
4 following pull-down mixtures (n=3). One of two independent experiments presented here.
5 b) Immunoblot for recovered GFP-CRTC1 or (c) GFP-CRTC3 immunoprecipitated by MYC-CREB
6 from overexpression HEK293T cell line. APC (10 μM) was incubated with cells for 1-h before FKS
7 (10 nM) stimulation and was included in the following pull-down mixtures. One of two independent
8 experiments presented here.
9 d) SPR sonogram traces of APC binding with HIS-CREB proteins immobilized to NTA-chip. The
10 concentration series of APC was as indicated.
11 e) SPR sonogram traces of APC flowing through HIS-CRTC2-S171A proteins immobilized on
12 NTA-chip. The concentration of APC was as indicated.
13 f) The luciferase enzymatic activity of HEK293T incubated with APC. Cells over-expressed
14 luciferase CRE-Luc reporter and were stimulated by FSK (10 nM) for 5-h before lysis, which was
15 then incubated with APC (concentration indicated) for 30 min before luciferase activity determination
16 (n=3 per treatment). Data are represented as mean ± SEM. *, p < 0.05; **, p < 0.01; p values were
17 determined by one-way ANOVA followed Dunnett’s multiple comparisons test. […]

T1 sequence (P16220 whole entry): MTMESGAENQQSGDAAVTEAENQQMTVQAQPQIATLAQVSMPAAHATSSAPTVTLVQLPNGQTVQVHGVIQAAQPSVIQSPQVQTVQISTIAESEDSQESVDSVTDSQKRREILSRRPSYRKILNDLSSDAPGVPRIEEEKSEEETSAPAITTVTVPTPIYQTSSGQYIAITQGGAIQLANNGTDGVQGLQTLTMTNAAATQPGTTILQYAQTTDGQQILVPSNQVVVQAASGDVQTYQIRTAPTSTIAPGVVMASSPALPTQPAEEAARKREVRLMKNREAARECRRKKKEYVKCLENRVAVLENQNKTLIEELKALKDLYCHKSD
T1 sequence (B2RWS6 whole entry partner): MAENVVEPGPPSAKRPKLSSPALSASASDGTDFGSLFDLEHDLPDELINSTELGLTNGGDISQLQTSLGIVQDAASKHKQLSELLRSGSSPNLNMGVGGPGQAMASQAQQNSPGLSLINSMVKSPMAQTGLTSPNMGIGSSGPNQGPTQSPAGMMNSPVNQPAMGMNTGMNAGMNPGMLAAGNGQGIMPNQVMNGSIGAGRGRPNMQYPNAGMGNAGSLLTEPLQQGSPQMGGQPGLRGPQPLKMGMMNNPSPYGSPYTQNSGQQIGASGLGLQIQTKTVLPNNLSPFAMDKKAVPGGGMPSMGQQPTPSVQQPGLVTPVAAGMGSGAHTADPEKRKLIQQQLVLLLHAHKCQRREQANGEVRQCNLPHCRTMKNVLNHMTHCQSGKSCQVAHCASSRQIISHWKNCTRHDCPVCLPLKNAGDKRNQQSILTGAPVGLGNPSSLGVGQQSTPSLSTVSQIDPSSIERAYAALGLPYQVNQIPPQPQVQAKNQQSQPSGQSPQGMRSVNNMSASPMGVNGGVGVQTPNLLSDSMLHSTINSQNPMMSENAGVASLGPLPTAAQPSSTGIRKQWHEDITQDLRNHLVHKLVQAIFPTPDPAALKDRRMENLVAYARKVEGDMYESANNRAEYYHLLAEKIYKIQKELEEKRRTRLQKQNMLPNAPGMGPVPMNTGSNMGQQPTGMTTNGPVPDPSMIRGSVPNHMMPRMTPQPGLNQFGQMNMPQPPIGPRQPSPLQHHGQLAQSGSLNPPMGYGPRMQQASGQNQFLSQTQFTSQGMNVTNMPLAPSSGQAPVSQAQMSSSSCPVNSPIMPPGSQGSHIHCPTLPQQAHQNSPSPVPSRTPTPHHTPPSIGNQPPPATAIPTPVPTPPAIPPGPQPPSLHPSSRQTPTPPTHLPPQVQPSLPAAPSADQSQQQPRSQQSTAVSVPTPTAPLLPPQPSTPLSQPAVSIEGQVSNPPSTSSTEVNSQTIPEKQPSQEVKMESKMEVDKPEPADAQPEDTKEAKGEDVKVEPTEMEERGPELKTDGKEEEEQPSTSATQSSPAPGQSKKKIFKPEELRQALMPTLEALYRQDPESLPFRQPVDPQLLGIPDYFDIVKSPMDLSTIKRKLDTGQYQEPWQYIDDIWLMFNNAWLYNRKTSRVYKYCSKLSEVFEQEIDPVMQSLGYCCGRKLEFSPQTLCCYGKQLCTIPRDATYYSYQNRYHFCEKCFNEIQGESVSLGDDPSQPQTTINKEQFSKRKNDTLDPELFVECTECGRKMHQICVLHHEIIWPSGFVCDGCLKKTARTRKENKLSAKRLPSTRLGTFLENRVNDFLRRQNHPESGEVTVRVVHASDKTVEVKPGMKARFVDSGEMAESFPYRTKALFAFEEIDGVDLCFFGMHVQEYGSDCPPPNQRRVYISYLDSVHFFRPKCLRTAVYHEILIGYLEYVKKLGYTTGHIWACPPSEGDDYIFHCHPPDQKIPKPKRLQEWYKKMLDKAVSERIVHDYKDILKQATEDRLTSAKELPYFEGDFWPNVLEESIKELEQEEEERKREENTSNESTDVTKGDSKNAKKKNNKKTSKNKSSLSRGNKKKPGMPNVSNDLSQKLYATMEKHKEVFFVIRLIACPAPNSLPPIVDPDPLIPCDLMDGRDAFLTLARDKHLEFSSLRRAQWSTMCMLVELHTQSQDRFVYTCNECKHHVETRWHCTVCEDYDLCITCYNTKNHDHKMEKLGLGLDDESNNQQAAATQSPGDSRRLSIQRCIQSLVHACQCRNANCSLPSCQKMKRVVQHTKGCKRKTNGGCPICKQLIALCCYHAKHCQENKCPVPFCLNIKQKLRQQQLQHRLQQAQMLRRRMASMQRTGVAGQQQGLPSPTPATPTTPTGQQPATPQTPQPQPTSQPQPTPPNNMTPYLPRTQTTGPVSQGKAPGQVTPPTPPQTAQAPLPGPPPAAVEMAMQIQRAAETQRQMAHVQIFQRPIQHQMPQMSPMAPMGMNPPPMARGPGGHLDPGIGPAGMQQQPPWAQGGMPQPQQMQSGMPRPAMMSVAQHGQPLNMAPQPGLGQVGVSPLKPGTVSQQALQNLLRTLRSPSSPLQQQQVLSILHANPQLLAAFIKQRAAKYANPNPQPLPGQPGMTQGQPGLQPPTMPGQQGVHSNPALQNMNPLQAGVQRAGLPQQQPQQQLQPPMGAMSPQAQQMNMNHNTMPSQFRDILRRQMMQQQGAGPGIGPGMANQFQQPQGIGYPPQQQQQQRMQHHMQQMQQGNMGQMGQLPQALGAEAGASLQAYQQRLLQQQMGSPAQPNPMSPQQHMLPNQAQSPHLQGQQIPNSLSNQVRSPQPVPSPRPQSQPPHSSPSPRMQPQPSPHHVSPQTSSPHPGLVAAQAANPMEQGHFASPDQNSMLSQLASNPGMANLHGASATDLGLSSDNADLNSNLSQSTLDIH

CC(C)=CCc1cc(C=CC(=O)O)cc(CC=C(C)C)c1O [APC, 3,5-diprenyl-4-hydroxycinnamic acid]
RER of DIO ([1]; interval 46, hour 16.9): 0.827 and 0.816 and 0.835 and 0.797
RER of DIO ([1]; interval 47, hour 17.2): 0.845 and 0.787 and 0.84 and 0.811
RER of DIO ([1]; interval 48, hour 17.6): 0.803 and 0.8 and 0.812 and 0.779
RER of DIO ([1]; interval 49, hour 18.0): 0.826 and 0.77 and 0.786 and 0.808
RER of DIO ([1]; interval 50, hour 18.3): 0.8 and 0.765 and 0.776 and 0.827
RER of DIO ([1]; interval 51, hour 18.7): 0.816 and 0.804 and 0.782 and 0.849
RER of DIO ([1]; interval 52, hour 19.1): 0.748 and 0.846 and 0.834 and 0.782
RER of DIO ([1]; interval 53, hour 19.4): 0.829 and 0.795 and 0.809 and 0.784
RER of DIO ([1]; interval 54, hour 19.8): 0.795 and 0.796 and 0.8 and 0.821
RER of DIO ([1]; interval 55, hour 20.2): 0.793 and 0.823 and 0.818 and 0.827
RER of DIO ([1]; interval 56, hour 20.5): 0.819 and 0.827 and 0.837 and 0.791
RER of DIO ([1]; interval 57, hour 20.9): 0.849 and 0.806 and 0.795 and 0.788
RER of DIO ([1]; interval 58, hour 21.3): 0.795 and 0.771 and 0.783 and 0.79
RER of DIO ([1]; interval 59, hour 21.6): 0.833 and 0.785 and 0.748 and 0.783
RER of DIO ([1]; interval 60, hour 22.0): 0.787 and 0.839 and 0.786 and 0.789
RER of DIO ([1]; interval 61, hour 22.4): 0.78 and 0.845 and 0.792 and 0.77
RER of DIO ([1]; interval 62, hour 22.7): 0.799 and 0.852 and 0.77 and 0.81
RER of DIO ([1]; interval 63, hour 23.1): 0.815 and 0.784 and 0.793 and 0.796
RER of DIO ([1]; interval 64, hour 23.5): 0.868 and 0.804 and 0.79 and 0.793
RER of DIO ([1]; interval 65, hour 23.8): 0.88 and 0.841 and 0.837 and 0.825
RER of DIO ([1]; interval 66, hour 24.2): 0.846 and 0.879 and 0.838 and 0.813
RER of DIO ([1]; interval 67, hour 24.6): 0.838 and 0.875 and 0.807 and 0.8
RER of DIO ([1]; interval 68, hour 24.9): 0.86 and 0.913 and 0.847 and 0.857
RER of DIO ([1]; interval 69, hour 25.3): 0.873 and 0.865 and 0.838 and 0.896
RER of DIO ([1]; interval 70, hour 25.7): 0.843 and 0.89 and 0.8 and 0.847
AUC of RER ([1]; WT mice, individual mice): 64.64 and 64.37 and 63.27 and 66.85
Twenty-four hours respiratory exchange ratio (RER) ([1]; WT mice, individual mice, reading 6): 0.933 and 0.928 and 0.895 and 0.97
Twenty-four hours respiratory exchange ratio (RER) ([1]; WT mice, individual mice, reading 7): 0.939 and 0.96 and 0.973 and 0.974
Twenty-four hours respiratory exchange ratio (RER) ([1]; WT mice, individual mice, reading 8): 0.918 and 0.961 and 0.922 and 0.982
Twenty-four hours respiratory exchange ratio (RER) ([1]; WT mice, individual mice, reading 9): 0.913 and 0.964 and 0.926 and 0.986
Twenty-four hours respiratory exchange ratio (RER) ([1]; WT mice, individual mice, reading 10): 0.969 and 0.971 and 0.952 and 0.978
Twenty-four hours respiratory exchange ratio (RER) ([1]; WT mice, individual mice, reading 11): 0.955 and 0.975 (2×) and 0.936
Twenty-four hours respiratory exchange ratio (RER) ([1]; WT mice, individual mice, reading 12): 0.989 and 0.966 and 0.963 and 1.016
Twenty-four hours respiratory exchange ratio (RER) ([1]; WT mice, individual mice, reading 13): 0.967 and 0.988 and 0.98 and 0.99
Twenty-four hours respiratory exchange ratio (RER) ([1]; WT mice, individual mice, reading 14): 0.975 and 0.999 and 0.954 and 1.005
Twenty-four hours respiratory exchange ratio (RER) ([1]; WT mice, individual mice, reading 15): 0.988 and 0.994 and 0.959 and 0.969
Twenty-four hours respiratory exchange ratio (RER) ([1]; WT mice, individual mice, reading 16): 1.003 and 0.991 and 0.965 and 0.97
Twenty-four hours respiratory exchange ratio (RER) ([1]; WT mice, individual mice, reading 17): 1.006 and 0.99 and 0.951 and 0.989
Twenty-four hours respiratory exchange ratio (RER) ([1]; WT mice, individual mice, reading 18): 0.963 and 0.961 and 0.974 and 1.025
Twenty-four hours respiratory exchange ratio (RER) ([1]; WT mice, individual mice, reading 19): 0.958 and 0.976 and 0.946 and 1.032
Twenty-four hours respiratory exchange ratio (RER) ([1]; WT mice, individual mice, reading 20): 0.939 and 0.961 and 1.004 and 1.024
Twenty-four hours respiratory exchange ratio (RER) ([1]; WT mice, individual mice, reading 21): 0.991 and 1.018 and 0.961 and 0.993
Twenty-four hours respiratory exchange ratio (RER) ([1]; WT mice, individual mice, reading 22): 0.946 and 0.962 and 0.958 and 0.989
Twenty-four hours respiratory exchange ratio (RER) ([1]; WT mice, individual mice, reading 23): 0.971 and 1.012 and 0.999 and 0.985
Twenty-four hours respiratory exchange ratio (RER) ([1]; WT mice, individual mice, reading 24): 1.006 and 0.997 and 0.993 and 1.002
Twenty-four hours respiratory exchange ratio (RER) ([1]; WT mice, individual mice, reading 25): 0.971 and 0.965 and 0.961 and 0.984
Twenty-four hours respiratory exchange ratio (RER) ([1]; WT mice, individual mice, reading 26): 0.941 and 0.984 and 1.005 and 0.996
Twenty-four hours respiratory exchange ratio (RER) ([1]; WT mice, individual mice, reading 27): 0.981 and 0.968 and 0.989 and 0.998
Twenty-four hours respiratory exchange ratio (RER) ([1]; WT mice, individual mice, reading 28): 0.956 and 0.954 and 0.968 and 0.984
Twenty-four hours respiratory exchange ratio (RER) ([1]; WT mice, individual mice, reading 29): 0.975 and 0.977 and 0.994 and 1.026
Twenty-four hours respiratory exchange ratio (RER) ([1]; WT mice, individual mice, reading 30): 0.994 and 0.963 and 1.014 and 1.033
AUC of RER, group mean ([1]; WT mice, n=4): 64.78
respiratory exchange ratio (RER) and energy expenditure ([1]; db/db mice): significantly elevated
association of CREB with P300 [2]: little effect
